Where a SMILES comes first, the peptide text is derived from it. Bridges are numbered along the chain shown (N, C = ends).
Columns and labels:
S. simulans 22 = assay: MIC assays under standard conditions; format: cell-based, Staphylococcus simulans; conditions: Supplementary Table 1; cation-adjusted MHB, 37 °C, 16–20 h
Procedure: (§1) Plectasin and analogues were serially diluted in cation-adjusted Mueller–Hinton broth (MHB) in round-bottom polypropylene 96-well plates (50 µl per well). Selected bacterial strains were grown from glycerol stocks on blood agar plates. Individual colonies were inoculated in TSB and incubated at 37 °C while shaking until OD600 reached 0.5. Bacterial suspensions were then diluted 100 times in cation-adjusted MHB and distributed (50 μl per well) over the microplate containing the diluted plectasin solutions. Plates were covered by a gas-permeable adhesive membrane and incubated at 37 °C while shaking. MICs were determined by visual inspection after 16–20 h (Staphylococcus) or 20–24 h (Streptococcus). For Streptococcus strains, the broth was additionally supplemented with 5% lysed horse blood, and the microplates were incubated under 5% CO2 atmosphere. In the assays, we used the following strains: S. simulans, S. pneumoniae serotype 8, S. pneumoniae ATCC6305 and Streptococcus pyogenes M3.

[1] = Isothermal titration calorimetry with lipid II LUVs; format: binding; conditions: mutant vs plectasin
Procedure: About 200 nm large unilamellar vesicles (LUVs) were prepared from 2 mol% lipid II in DOPC by the extrusion technique. ITC measurements were conducted on a low-volume Affinity ITC (TA instruments). All measurements were conducted at 37 °C. Samples were degassed for 10 min before the ITC experiments. The cell was filled with plectasin (in 50 mM HEPES, 150 mM NaCl at pH = 7.2) and titrated with LUVs in the same buffer under constant stirring at 125 r.p.m. The data were analysed using the Nano Analyze software version 3.11.0 (TA Instruments). After baseline correction, the integrated peaks were fitted using an independent binding model. Each measurement was acquired in duplicate.

S. pneumoniae ATCC6305 = assay: MIC assays under standard conditions; format: cell-based, Streptococcus pneumoniae; conditions: Supplementary Table 1; cation-adjusted MHB + 5% lysed horse blood, 5% CO2, 20–24 h
Procedure: as §1

[2] = Confocal microscopy of GUVs doped with Und-NBD-lipid II; conditions: GUVs 0.4 mol% Und-NBD-LII in DOPC, 1 μM antibiotic
Procedure: GUVs were prepared by electroformation using in-house build Teflon cells with two titanium wires as electrodes. About 1 μl of 0.5 mM DOPC with 0.4 mol% NBD–lipid II in 2:1 CHCl3/MeOH was brushed on both electrodes and thoroughly dried under vacuum. Next, the cell was filled with 350 μl 300 mM sucrose, and GUVs were formed by applying an oscillating voltage (sine wave, 2 V, 10 Hz) for 90 min and released from the electrodes (square wave, 2 V, 2 Hz). Microscopy slides were precoated using a 1 mg ml^−1 BSA solution. Slides were filled with 300 μl 300 mM glucose solution, followed by addition of the antibiotic and finally 30–50 μl GUV solution. The GUVs were imaged using a Zeiss LSM 880 confocal microscope with a ×63/1.2NA glycerol objective lens. Green fluorescence (530–545 nm) was detected after excitation with a 488 nm laser.

## CC[C@H](C)[C@@H]1NC(=O)[C@H](CO)NC(=O)[C@H](CCCCN)NC(=O)[C@@H]2CSSC[C@@H](C(=O)N[C@@H](Cc3ccc(O)cc3)C(=O)O)NC(=O)[C@H](CCCCN)NC(=O)[C@@H]3CSSC[C@H](NC(=O)[C@H](CCC(N)=O)NC(=O)[C@H](CCSC)NC(=O)[C@H](CC(=O)O)NC(=O)[C@H](CC(=O)O)NC(=O)[C@H](CCC(=O)O)NC(=O)[C@H](CC(=O)O)NC(=O)[C@H](Cc4c[nH]c5ccccc45)NC(=O)[C@@H]4CCCN4C(=O)CNC(=O)[C@H](CC(N)=O)NC(=O)[C@@H](NC(=O)CNC(=O)[C@H](Cc4ccccc4)NC(=O)CN)CSSC[C@H](NC(=O)[C@H](Cc4ccc(O)cc4)NC(=O)CNC(=O)CNC(=O)[C@H](CCCCN)NC(=O)[C@H](Cc4ccc(O)cc4)NC(=O)CNC(=O)[C@H](CCCCN)NC1=O)C(=O)N[C@@H](C)C(=O)N[C@@H](CCCCN)C(=O)NCC(=O)NCC(=O)N[C@@H](Cc1ccccc1)C(=O)N[C@@H](C(C)C)C(=O)N3)C(=O)N[C@@H](Cc1c[nH]cn1)C(=O)N[C@@H](CC(N)=O)C(=O)N[C@@H](C)C(=O)N2 [H18A] (H-GFGCNGPWDEDDMQCHNACKSIKGYKGGYCAKGGFVCKCY-OH; disulfide 4-30, 15-37, 19-39 (inferred); N-terminus and C-terminus assumed)
S. simulans 22
  Minimum inhibitory concentration, S. simulans: > 50 µg/mL
[1]
  loss in lipid II binding affinity (ITC): > 10 fold

## CC[C@H](C)[C@@H]1NC(=O)[C@H](CO)NC(=O)[C@H](CCCCN)NC(=O)[C@@H]2CSSC[C@@H](C(=O)N[C@@H](Cc3ccc(O)cc3)C(=O)O)NC(=O)[C@H](CCCCN)NC(=O)[C@@H]3CSSC[C@H](NC(=O)[C@H](CCC(N)=O)NC(=O)[C@H](CCSC)NC(=O)[C@H](CC(=O)O)NC(=O)[C@H](CC(=O)O)NC(=O)[C@H](CCC(=O)O)NC(=O)[C@H](CC(=O)O)NC(=O)[C@H](Cc4c[nH]c5ccccc45)NC(=O)[C@@H]4CCCN4C(=O)CNC(=O)[C@H](CC(N)=O)NC(=O)[C@@H](NC(=O)CNC(=O)[C@H](Cc4ccccc4)NC(=O)CN)CSSC[C@H](NC(=O)[C@H](C)NC(=O)CNC(=O)CNC(=O)[C@H](CCCCN)NC(=O)[C@H](Cc4ccc(O)cc4)NC(=O)CNC(=O)[C@H](CCCCN)NC1=O)C(=O)N[C@@H](C)C(=O)N[C@@H](CCCCN)C(=O)NCC(=O)NCC(=O)N[C@@H](Cc1ccccc1)C(=O)N[C@@H](C(C)C)C(=O)N3)C(=O)N[C@@H](Cc1c[nH]cn1)C(=O)N[C@@H](CC(N)=O)C(=O)N[C@@H](Cc1c[nH]cn1)C(=O)N2 [Y29A] (H-GFGCNGPWDEDDMQCHNHCKSIKGYKGGACAKGGFVCKCY-OH; disulfide 4-30, 15-37, 19-39 (inferred); N-terminus and C-terminus assumed)
S. pneumoniae ATCC6305
  Minimum inhibitory concentration, S. pneumoniae ATCC6305: > 50 µg/mL
S. simulans 22
  Minimum inhibitory concentration, S. simulans: 12,5 μg/mL

## CC[C@H](C)[C@@H]1NC(=O)[C@H](CO)NC(=O)[C@H](CCCCN)NC(=O)[C@@H]2CSSC[C@@H](C(=O)N[C@@H](Cc3ccc(O)cc3)C(=O)O)NC(=O)[C@H](CCCCN)NC(=O)[C@@H]3CSSC[C@H](NC(=O)[C@H](CCC(N)=O)NC(=O)[C@H](CCSC)NC(=O)[C@H](CC(=O)O)NC(=O)[C@H](CC(=O)O)NC(=O)[C@H](CCC(=O)O)NC(=O)[C@H](CC(=O)O)NC(=O)[C@H](Cc4c[nH]c5ccccc45)NC(=O)[C@@H]4CCCN4C(=O)CNC(=O)[C@H](CC(N)=O)NC(=O)[C@@H](NC(=O)CNC(=O)[C@H](Cc4ccccc4)NC(=O)CN)CSSC[C@H](NC(=O)[C@H](Cc4ccccc4)NC(=O)CNC(=O)CNC(=O)[C@H](CCCCN)NC(=O)[C@H](Cc4ccc(O)cc4)NC(=O)CNC(=O)[C@H](CCCCN)NC1=O)C(=O)N[C@@H](C)C(=O)N[C@@H](CCCCN)C(=O)NCC(=O)NCC(=O)N[C@@H](Cc1ccccc1)C(=O)N[C@@H](C(C)C)C(=O)N3)C(=O)N[C@@H](Cc1c[nH]cn1)C(=O)N[C@@H](CC(N)=O)C(=O)N[C@@H](Cc1c[nH]cn1)C(=O)N2 [Y29F] (H-GFGCNGPWDEDDMQCHNHCKSIKGYKGGFCAKGGFVCKCY-OH; disulfide 4-30, 15-37, 19-39 (inferred); N-terminus and C-terminus assumed)
S. pneumoniae ATCC6305
  Minimum inhibitory concentration, S. pneumoniae ATCC6305: ≤ 0.78 µg/mL
S. simulans 22
  Minimum inhibitory concentration, S. simulans: 1,56 μg/mL

## CC[C@H](C)[C@@H]1NC(=O)[C@H](CO)NC(=O)[C@H](CCCCN)NC(=O)[C@@H]2CSSC[C@@H](C(=O)N[C@@H](Cc3ccc(O)cc3)C(=O)O)NC(=O)[C@H](CCCCN)NC(=O)[C@@H]3CSSC[C@H](NC(=O)[C@H](CCC(N)=O)NC(=O)[C@H](CCSC)NC(=O)[C@H](CC(=O)O)NC(=O)[C@H](CC(=O)O)NC(=O)[C@H](CCC(=O)O)NC(=O)[C@H](CC(=O)O)NC(=O)[C@H](Cc4c[nH]c5ccccc45)NC(=O)[C@@H]4CCCN4C(=O)CNC(=O)[C@H](CC(N)=O)NC(=O)[C@@H](NC(=O)CNC(=O)[C@H](Cc4ccccc4)NC(=O)CN)CSSC[C@H](NC(=O)[C@H](CCCNC(=N)N)NC(=O)CNC(=O)CNC(=O)[C@H](CCCCN)NC(=O)[C@H](Cc4ccc(O)cc4)NC(=O)CNC(=O)[C@H](CCCCN)NC1=O)C(=O)N[C@@H](C)C(=O)N[C@@H](CCCCN)C(=O)NCC(=O)NCC(=O)N[C@@H](Cc1ccccc1)C(=O)N[C@@H](C(C)C)C(=O)N3)C(=O)N[C@@H](Cc1c[nH]cn1)C(=O)N[C@@H](CC(N)=O)C(=O)N[C@@H](Cc1c[nH]cn1)C(=O)N2 [Y29R] (H-GFGCNGPWDEDDMQCHNHCKSIKGYKGGRCAKGGFVCKCY-OH; disulfide 4-30, 15-37, 19-39 (inferred); N-terminus and C-terminus assumed)
S. pneumoniae ATCC6305
  Minimum inhibitory concentration, S. pneumoniae ATCC6305: 1,56 μg/mL
S. simulans 22
  Minimum inhibitory concentration, S. simulans: 1,56 μg/mL

## CC[C@H](C)[C@@H]1NC(=O)[C@H](CO)NC(=O)[C@H](CCCCN)NC(=O)[C@@H]2CSSC[C@@H](C(=O)N[C@@H](Cc3ccccc3)C(=O)O)NC(=O)[C@H](CCCCN)NC(=O)[C@@H]3CSSC[C@H](NC(=O)[C@H](CCC(N)=O)NC(=O)[C@H](CCSC)NC(=O)[C@H](CC(=O)O)NC(=O)[C@H](CC(=O)O)NC(=O)[C@H](CCC(=O)O)NC(=O)[C@H](CC(=O)O)NC(=O)[C@H](Cc4c[nH]c5ccccc45)NC(=O)[C@@H]4CCCN4C(=O)CNC(=O)[C@H](CC(N)=O)NC(=O)[C@@H](NC(=O)CNC(=O)[C@H](Cc4ccccc4)NC(=O)CN)CSSC[C@H](NC(=O)[C@H](Cc4ccc(O)cc4)NC(=O)CNC(=O)CNC(=O)[C@H](CCCCN)NC(=O)[C@H](Cc4ccc(O)cc4)NC(=O)CNC(=O)[C@H](CCCCN)NC1=O)C(=O)N[C@@H](C)C(=O)N[C@@H](CCCCN)C(=O)NCC(=O)NCC(=O)N[C@@H](Cc1ccccc1)C(=O)N[C@@H](C(C)C)C(=O)N3)C(=O)N[C@@H](Cc1c[nH]cn1)C(=O)N[C@@H](CC(N)=O)C(=O)N[C@@H](Cc1c[nH]cn1)C(=O)N2 [Y40F] (H-GFGCNGPWDEDDMQCHNHCKSIKGYKGGYCAKGGFVCKCF-OH; disulfide 4-30, 15-37, 19-39 (inferred); N-terminus and C-terminus assumed)
S. pneumoniae ATCC6305
  Minimum inhibitory concentration, S. pneumoniae ATCC6305: 0,78 μg/mL
S. simulans 22
  Minimum inhibitory concentration, S. simulans: 1,56 μg/mL

## CC[C@H](C)[C@@H]1NC(=O)[C@H](CO)NC(=O)[C@H](CCCCN)NC(=O)[C@@H]2CSSC[C@@H](C(=O)N[C@@H](CCCNC(=N)N)C(=O)O)NC(=O)[C@H](CCCCN)NC(=O)[C@@H]3CSSC[C@H](NC(=O)[C@H](CCC(N)=O)NC(=O)[C@H](CCSC)NC(=O)[C@H](CC(=O)O)NC(=O)[C@H](CC(=O)O)NC(=O)[C@H](CCC(=O)O)NC(=O)[C@H](CC(=O)O)NC(=O)[C@H](Cc4c[nH]c5ccccc45)NC(=O)[C@@H]4CCCN4C(=O)CNC(=O)[C@H](CC(N)=O)NC(=O)[C@@H](NC(=O)CNC(=O)[C@H](Cc4ccccc4)NC(=O)CN)CSSC[C@H](NC(=O)[C@H](Cc4ccc(O)cc4)NC(=O)CNC(=O)CNC(=O)[C@H](CCCCN)NC(=O)[C@H](Cc4ccc(O)cc4)NC(=O)CNC(=O)[C@H](CCCCN)NC1=O)C(=O)N[C@@H](C)C(=O)N[C@@H](CCCCN)C(=O)NCC(=O)NCC(=O)N[C@@H](Cc1ccccc1)C(=O)N[C@@H](C(C)C)C(=O)N3)C(=O)N[C@@H](Cc1c[nH]cn1)C(=O)N[C@@H](CC(N)=O)C(=O)N[C@@H](Cc1c[nH]cn1)C(=O)N2 [Y40R] (H-GFGCNGPWDEDDMQCHNHCKSIKGYKGGYCAKGGFVCKCR-OH; disulfide 4-30, 15-37, 19-39 (inferred); N-terminus and C-terminus assumed)
S. pneumoniae ATCC6305
  Minimum inhibitory concentration, S. pneumoniae ATCC6305: > 50 µg/mL
S. simulans 22
  Minimum inhibitory concentration, S. simulans: > 50 µg/mL

## copsin
[2]
  lipid II cluster/domain formation on GUVs: caused the formation of lipid II domains in liposomes

## ramoplanin
[2]
  lipid II cluster/domain formation on GUVs: caused the formation of lipid II domains in liposomes

## teicoplanin
[2]
  lipid II cluster/domain formation on GUVs: caused the formation of lipid II domains in liposomes

Source: article PMC11222147, “Host defence peptide plectasin targets bacterial cell wall precursor lipid II by a calcium-sensitive supramolecular mechanism” (Nature Microbiology, 2024)
